From patent US7629318B2, “Immunosuppressant compounds, methods and uses related thereto” (priority 2002, dated 2009)
Square brackets hold non-standard residues; d marks the D form. Peptide text beside a SMILES is read from it. * marks the point of attachment. Tic = O=C(O)[C@@H]1Cc2ccccc2CN1; Cha = N[C@@H](CC1CCCCC1)C(=O)O; NHPhenethyl = c1ccc(CCN*)cc1; X4 = OCCOCCN(CCc1ccccc1)*; Nle = CCCC[C@H](N)C(=O)O

Legend:
[1] = Stability of compounds in rat blood plasma; format: in vitro ADME
Procedure: (§1) The stability of the peptidomimetic compounds was determined in rat (Charles River Laboratories, Sulzfeld), mouse (Charles River Laboratories, Sulzfeld) and human (Bayerisches Rotes Kreuz, München) blood plasma (E. R. Garrett and M. R. Gardner, J Pharmaceutical Sciences 71 (1982) 14-25).
(§2) Compound stock solutions were diluted into blood plasma to give a final compound concentration of 5 μM and the mixtures were incubated at 37° C. At 0, 6 and 24 hours 1 ml samples were drawn and the plasma proteins were precipitated by the addition of 3 ml acetonitrile p.a. and whirlmixing. The precipitate was pelleted by centrifugation at 2000 g for 5 minutes. The supernatant was evaporated off to dryness and the residue was reconstituted in 400 μl 50% acetonitrile, 0.1% TFA in water.
(§3) PBS controls were prepared for unstable compounds accordingly.

[2] = Stability of compounds in human blood plasma; format: in vitro ADME
Procedure: as §1, §2, §3

[3] = biological target: DR4Dw14 (DRA1*0101 DRB1*0404) (Homo sapiens, UniProt P01903+P01911, A100R/A169T/F76Y/I96L/K127E/L162R/M171V/N62H/P40V/Q125Y/R42H/S133A/S149N/S66Y/V209L/W38E); experiment: Competitive binding to MHC-II protein DR4Dw14; details: 0404; read-out: Protein binding IC50 (nM) 0404
Procedure: (§4) Interaction mixtures lacking the peptidomimetic compound and both peptide mimetic compound and MHC-II were used as positive and negative controls, respectively. All interaction mixtures were set up in duplicates and were incubated for 16 hours at room temperature.
(§5) After washing with PBS, 60 μl of the MHC-II-compound interaction mixtures were transferred from the interaction plate to the appropriate wells of the capture plate and incubated for 2 h at 4° C. The wells were washed six times with 200 μl/well of cooled (4 to 8° C.) 1×DELFIA wash (Wallac-ADL-GmbH, Freiburg), incubated with 100 μl of cooled Europium-streptavidin conjugate (Wallac-ADL-GmbH, Freiburg; diluted 1/1000 with DELFIA assay buffer) for 30 minutes at 4° C., again washed six times with cooled 1×DELFIA wash and, finally, incubated with 200 μl cooled DELFIA enhancement solution (Wallac-ADL-GmbH, Freiburg) for one hour at room temperature before reading the time-resolved europium fluorescence at λex Eu^3+: 340 nm and λem Eu^3+: 613 (615) nm (Wallac Victor^2 1420 Multilabel Counter, Wallac-ADL-GmbH, Freiburg).

[4] = biological target: Cathepsin B1 (EC 3.4.22.1 from bovine spleen) (Bos taurus, UniProt P07688); details: Cathepsin B, 4 h
[5] = Stability of compounds in mouse blood plasma; format: in vitro ADME
Procedure: as §1, §2, §3

[6] = test system: T-cell proliferation, lymph node cells of chimeric 0401-IE transgenic mice; details: DR4-LN; for IC50: read-out: Immunsupressive assays DR4-LN (IC50)
Procedure: The compounds were tested as follows to inhibit the proliferative T cell response of antigen-primed lymph node cells from mice carrying a chimeric mouse-human class II transgene with an RA-associated peptide binding site, and lack murine class II molecules (Muller et al., 1990; Woods et al., 1994; Current Protocols in Immunology, Vol. 2, 7.21; Ito et al., 1996). Here, the immunization takes place in vivo, but the inhibition and readout are ex vivo. […] These mice lack murine MHC class II, and thus, all Th responses are channelled through a single human RA-associated MHC class II molecule (Ito et al. 1996). These transgenic mice represent a model for testing human class II antagonists.
1.5×10^5 cells are incubated in 0.2 ml wells of 96-well tissue culture plates in the presence of ovalbumin (30 μg per well—half-maximal stimulatory concentration) and a dilution series of the compound under test (from around 0.1 to 200 uM) in serum free HL-1 medium containing 2 mM L-glutamine and 0.1 g/l Kanamycin for three days. Antigen specific proliferation is measured by 3H-methyl-thymidine (1 μCi/well) incorporation during the last 16 h of culture (Falcioni et al., 1999). Cells are harvested, and 3H incorporation measured using a scintillation counter (TopCount, Wallac Finland).

[7] = test system: T cell activation from 0404(DR14) chimeric MHCII-mice; experiment: In vivo inhibition of T cell activation by co-immunisation, DR14 mice immunised with OVA; parameters: species or system mouse; % Reduction of response to PPD(OVA): concentration or dose not given beside the values; details: for % Reduction of response to OVA: DR14 mice co-immunised with OVA plus compound, mean % inhibition from the control over 3 concentrations of antigen (6.7, 20 and 60 ug); for % Reduction of response to PPD(OVA): specificity control: response to PPD in the same cell pool, OVA co-immunised mice
Text: Mouse strains DR4 and DR14 carry chimeric MHC-II transgenes that encode the N-terminal domains of the respective DR molecules (forming the peptide binding site) and the remaining (2nd extracellular domains, transmembrane and intracytoplasmic domains) of the murine class II molecule I Ed. These strains are deficient of other murine class II, and thus, all helper T cell responses are triggered by peptides presented in the respective human MHC-II binding site. As an initial in vivo test of subject inhibitors designed to bind to DR, DR-transgenic mice were co-immunized with a pre-defined dose of protein antigen and different amounts of the compound antagonist to be tested. In this set-up, both antigen and compound were emulsified together in complete Freund's adjuvant (CFA), and thus, a direct competition between the two components for presentation by DR was tested. Readout of the assay is ex vivo antigen-specific activation of T cells from regional lymph nodes explanted 9 days after co-immunization. In a typical experiment, antigen dose-response was investigated, and the curves from mice immunized with antigen were compared to those from mice co-immunized with antigen+compound. The dose response curves were generated using lymph node cells pooled at equal numbers from 2-3 mice per experimental group. The experimental system also permits assessment of inherent antigenicity of the compound antagonist. This was done by setting up a dose-response study from the same cell pool using different concentrations of the compund under investigation instead of the antigen. As a specificity control, the response to Purified Protein Derivative (PPD), the major protein component of CFA, was tested in the same cell pool.
All Gpg conataining compounds have significant immunosupressive properties in one or both of the in-vivo models. Gpg-containing compounds also show improved activity or improved specificity over the Arg-containing equivilent. Further, compounds according to Formula I show activity in this assay.
Compounds of the invention were injected as an Emulsion prepared using CFA (Bacto Adjuvant Complete H37 Ra, Difco, Order-No. 3113-60); proteins 10 mg/ml in PBS, inhibitors 5 μM in 10% DMSO. CFA, PBS, antigen, and inhibitor were placed in the barrel of a 5-ml syringe (total volume not more than 1 mL). The mixture was sonicated at an amplitude less than 40% (30-35%) for two separated 15 s periods. The emulsion should seem to be hard and not liquid at this point. A drop of emulsion placed on the surface of water should not melt. The resulting emulsion was pushed through the needle into a 1 ml syringe with a needle (Gr.18, 26G×1″), and air bubbles were removed. Mice were co-immunized with 50 μg protein and 210 nM compound antagonist in final 100 μl emulsion into the tail base. Antigen+Compound and CFA are mixed 1:1 vol/vol. The best results are obtained using DR 4 mice immunised with HEL and DR 14 mice immunized with OVA.
Mice were injected at the tail-base as follows: Holding the tail of a mouse with thumb and middle finger, the index finger was placed under the base of the mouse's tail. The needle of the syringe was inserted about 1.5 cm from the tail base (hairy end) under the skin and pushed about 1 cm into the tail. 100 μl emulsion was injected into the mouse. After 9 days, mice were killed and lymph nodes removed.
The inhibitory effect of the candidate compounds on T-cell activation was tested using T-cells and antigen-presenting cells isolated from the lymph nodes of chimeric DR4-IE transgenic mice (Taconic, USA) previously co-immunized with hen egg lysozyme plus compound, or DR14-IE transgenic mice co-immunized with ovalbumin plus compound according to standard procedures (Adorini et al., 1988, Mueller et al., 1990; Current Protocols in Immunology, Vol. 2, 7.21; Ito et al., 1996). […]

[8] = biological target: DR4Dw4 (DRA1*0101 DRB1*0401) (Homo sapiens, UniProt P01903+P01911, A100K/A169T/F76Y/I96L/K127E/L162R/M171V/N62H/P40V/Q125Y/R42H/S133A/S149N/S66Y/V115G/V209L/W38E); experiment: Competitive binding to MHC-II protein DR4Dw4
Procedure: as §4, §5

[9] = biological target: DR1 (DRA1*0101 DRB1*0101) (Homo sapiens, UniProt P01903+P01911, A100R/D57E/F55L/F60I/F76Y/I96L/L162R/M171V/P40L/Q125E/R42F/V115G/Y59C); experiment: Competitive binding to MHC-II protein DR1; details: Protein binding IC50 (nM) 0101, 0101
Procedure: as §4, §5

[10] = biological target: Cathepsin D (EC 3.4.23.5 from bovine spleen) (Bos taurus, UniProt P80209)
Procedure: The stability of the peptidomimetic compounds towards lysosomal degradation was examined by incubation with Cathepsin B1 (EC 3.4.22.1 from bovine spleen; Sigma-Aldrich, Taufkirchen; dissolved at 10000 U/l in ddH2O) and D (EC 3.4.23.5 from bovine spleen; Sigma-Aldrich, Taufkirchen; dissolved at 10000 U/l in ddH2O) for four hours at 37° C. using a compound concentration of 50 μM and an enzyme/substrate ratio of 0.4 U/μmol. The samples contained 25 ppm 4-isopropyl benzyl alcohol (IPBA; Sigma-Aldrich, Taufkirchen) as internal standard.
Assay buffer was prepared by adding 35 μl of a 1% IPBA in DMSO solution and 28 μl of a 10000 U/l Cathepsin B1 or Cathepsin D stock solution to 14 ml of 100 mM sodium acetate, 1 mM EDTA, 1 mM DTT, pH 5.00 or 100 mM sodium acetate, pH 4.50, respectively. 8.8 μl of a 5 mM (or 4.4 μl of a 10 mM) compound stock solution (in 10% DMSO/water) were placed into a 1.5 ml Eppendorf tube. The reaction was started by adding 875 μl fully supplemented assay buffer to each tube, whirlmixing and incubation at 37° C. At 0 and 4 hours 400 μl samples were taken and the enzyme was inactivated by addition of 40 μl […] TFA aq. The samples were kept frozen at −20° C. until analysis by RP-HPLC (200 μl injection volume; Nucleosil 100-5 C18, 12.5×4.6 cm; Gradient: 20-50% acetonitrile in 30 min).
Compounds co-eluting with the internal standard during RP-HPLC analysis were tested without the standard as Example 16.

[11] = test system: T-cell proliferation, DR14-LN; details: read-out: Immunsupressive assays DR14-LN (IC50)

Row | Compound | Stability (Arbitrary units) Rat 6 h [1] [Arbitrary units] | Stability (Arbitrary units) Human 6 h [2] [Arbitrary units] | Stability (Arbitrary units) Human 24 h [2] [Arbitrary units] | IC50 [3] [nM] | Stability (Arbitrary units) Cath B 4 h [4] [Arbitrary units] | Stability (Arbitrary units) Mouse 6 h [5] [Arbitrary units] | Stability (Arbitrary units) Mouse 24 h [5] [Arbitrary units] | Immunsupressive assays DR4-LN (Max) % Inhibition ([6]; maximal inhibition) [%] | IC50 [6] [µM] | % Reduction of response to OVA [7] [%] | % Reduction of response to PPD(OVA) [7] [%] | IC50 [8] [µM] | IC50 [9] [nM] | Stability (Arbitrary units) Cath D 4 h [10] [Arbitrary units] | Stability (Arbitrary units) Rat 24 h [1] [Arbitrary units] | IC50 [11] [µM]
1 | CCCC[C@H](NC(=O)[C@@H]1Cc2ccccc2CN1C(=O)[C@H](CCCNC(=N)N)NC(=O)[C@H](CC1CCCCC1)NC(C)=O)C(=O)NCCc1ccccc1 [Compound P82, Ac-Cha-Arg-Tic-Nle-N(H)CH2CH2Ph] (Ac-[Cha]R[Tic][Nle]-NHPhenethyl) | 65 | 94 | 72 | 14000 | 105 | 79 | 31 | 100 | 27 | 25 | 5 | 18 | 3100 |  |  | 
2 | Ac-Hfe-Gpg-Tic-Nle-βPhPro-[S(oxaz)L]-NMe2 [Compound P57] |  |  |  |  |  |  |  |  |  | 52.6 | 52.4 |  |  |  |  | 
3 | CCCC[C@H](NC(=O)[C@@H]1Cc2ccccc2CN1C(=O)[C@H](CCCNC(=N)N)NC(=O)[C@H](CC1CCCCC1)NC(C)=O)C(=O)N(CCOCCO)CCc1ccccc1 [Compound P88] (Ac-[Cha]R[Tic][Nle]-X4) | 77 | 133 | 123 | 5700 | 94 | 125 | 128 |  | 105 |  |  | 10 | 2000 | 101 | 55 | 37
